Laboratory results taken from US12247029B2, “Heterocyclic compounds as class II phosphoinositide 3-kinase inhibitors” (Forschungsverbund Berlin e.V., priority 2018, dated 2025).

What follows are compounds tested against PI3KC2α Δ1-298 (Homo sapiens (Human), UniProt O00443) (assay: ADP-Glo kinase assay with purified PI3KC2α Δ1-298). Conditions: not given.
Sequence of PI3KC2α Δ1-298 (O00443 299-1686): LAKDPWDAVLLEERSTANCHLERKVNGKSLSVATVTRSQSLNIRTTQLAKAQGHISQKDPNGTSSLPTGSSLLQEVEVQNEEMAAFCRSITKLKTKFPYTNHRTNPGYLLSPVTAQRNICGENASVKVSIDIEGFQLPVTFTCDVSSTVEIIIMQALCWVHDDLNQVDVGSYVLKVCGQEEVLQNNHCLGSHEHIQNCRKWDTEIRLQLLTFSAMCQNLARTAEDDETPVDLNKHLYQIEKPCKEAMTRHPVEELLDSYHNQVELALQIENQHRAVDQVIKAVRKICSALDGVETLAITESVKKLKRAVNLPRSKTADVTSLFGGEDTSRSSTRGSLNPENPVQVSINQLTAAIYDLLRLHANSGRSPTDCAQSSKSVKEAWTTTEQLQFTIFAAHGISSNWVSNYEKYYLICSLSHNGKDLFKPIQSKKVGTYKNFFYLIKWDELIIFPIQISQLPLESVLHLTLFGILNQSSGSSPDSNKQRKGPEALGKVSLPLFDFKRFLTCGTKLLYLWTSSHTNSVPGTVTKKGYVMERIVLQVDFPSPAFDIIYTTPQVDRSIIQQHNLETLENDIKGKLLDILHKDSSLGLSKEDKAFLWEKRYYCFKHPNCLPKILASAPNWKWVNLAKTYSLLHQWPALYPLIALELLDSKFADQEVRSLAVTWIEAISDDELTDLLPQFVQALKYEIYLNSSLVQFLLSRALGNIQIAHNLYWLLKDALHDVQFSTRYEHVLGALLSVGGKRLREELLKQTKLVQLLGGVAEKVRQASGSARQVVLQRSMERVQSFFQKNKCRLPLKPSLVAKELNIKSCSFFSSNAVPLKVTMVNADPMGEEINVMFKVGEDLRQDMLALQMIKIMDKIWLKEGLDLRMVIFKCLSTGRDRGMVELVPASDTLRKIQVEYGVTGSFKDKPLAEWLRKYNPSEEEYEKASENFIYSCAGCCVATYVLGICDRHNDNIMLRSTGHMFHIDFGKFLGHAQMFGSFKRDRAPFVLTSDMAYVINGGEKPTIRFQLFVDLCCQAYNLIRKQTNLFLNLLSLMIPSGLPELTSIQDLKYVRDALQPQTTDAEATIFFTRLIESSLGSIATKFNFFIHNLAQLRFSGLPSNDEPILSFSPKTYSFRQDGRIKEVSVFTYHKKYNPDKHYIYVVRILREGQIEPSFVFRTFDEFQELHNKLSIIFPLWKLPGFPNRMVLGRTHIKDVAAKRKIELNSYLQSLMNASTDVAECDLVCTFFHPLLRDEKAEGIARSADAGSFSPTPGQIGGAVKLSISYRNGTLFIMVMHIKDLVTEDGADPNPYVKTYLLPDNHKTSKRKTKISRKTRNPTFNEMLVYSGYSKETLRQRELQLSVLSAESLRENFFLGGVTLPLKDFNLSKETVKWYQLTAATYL
Type: biochemical
Method: Previous studies have shown that PI3KC2α can utilize phosphatidylinositol (PI) or phosphatidylinositol 4-phosphate [PI(4)P] to produce PI(3)P or PI(3,4)P2 respectively but with a preference for PI(3,4)P2 production. To verify that purified PI3KC2α Δ1-298 is active, a radioactive kinase assay was performed with PI as a substrate and different amounts of purified PI3KC2α Δ1-298. The lipid product [PI(3)P] was separated on TLC plates, and the PI(3)P signal was correlated with the amount of PI3KC2α used (FIG. 4A). […] After having confirmed the activity of purified PI3KC2α Δ1-298, an assay suitable for high content screens in multiwell format (ADP-Glo™ assay) was established. The ADP-Glo™ assay has been used for universal detection of ATP hydrolysis. This assay measures ATP hydrolysis occurring during a kinase reaction. For detection, generated ADP is re-converted into ATP with the […] and converted into light by the Ultra-Glo™ Luciferase reagent. The luminescent signal reports kinase activity (FIG. 4B).
The ADP-Glo™ assay was first used to determine the linear correlation range of signal with different amounts of kinase, and then to assess the Kms for ATP and for PI. […] Further optimization of this assay allowed us to carry out medium-to-high throughput screening using low amounts of purified enzyme (at fixed concentrations of: ATP=40 μM, PI=200 μM, PI3KC2α A1−298=10 ng/μl).
Primary screens were performed using the ADP-Glo™ assay in a 384-well format. 37, 224 small molecules were screened for their ability to inhibit kinase activity of PI3KC2α Δ1-298. The concentration of each compound used in the primary screens was 10 μM. Kinase incubations with ATP but without PI were used as negative control samples. This primary screen turned out to be robust with an average z′ factor of 0.57, and therefore judged as successful.
ADP-Glo kinase assay was performed as described by the manufacturer's protocol. Briefly, the kinase assay was performed with a […] of liver PI/ATP/purified PI3KC2α for 20 min in kinase reaction buffer described above. To deplete the remaining ATP from the reaction, 5 μl of […] was added to the kinase reaction mixture and incubated for 40 min. For detection, the generated ADP is re-converted into ATP and converted into light by the Ultra-Glo™ luciferase in kinase detection reagent. The luminescent signal positively correlates with kinase activity. All reactions are performed in Corning® 384 well-white plates.
In the case of `O=C(CSc1nc2nccnc2c(=O)n1CCc1ccccc1)Nc1nc(-c2cccc([N+](=O)[O-])c2)cs1` [Example Compound 58, N-(4-(3-Nitrophenyl)thiazol-2-yl)-2-((4-oxo-3-phenethyl-3,4-dihydropteridin-2-yl)thio)acetamide], the inhibition at 10 µM is reported as 100%. `O=C(CSc1nc2nccnc2c(=O)n1CCc1ccccc1)c1ccccc1F` [Example Compound 64, 2-((2-(2-Fluorophenyl)-2-oxoethyl)thio)-3-phenethylpteridin-4(3H)-one] showed an inhibition at 10 µM of 35%.

Same assay, conditions: read-out: IC50 (PI3KC2α; ADP-Glo™ assay)
In the case of `O=C(CSc1nc2nccnc2c(=O)n1-c1cccc(-c2ccccc2)c1)Nc1nccs1` [Example Compound 17, 2-((3-([1,1′-Biphenyl]-3-yl)-4-oxo-3,4-dihydropteridin-2-yl)thio)-N-(thiazol-2-yl)acetamide], the IC50 is reported as 9 µM. Compound `Nc1cccc(-c2csc(NC(=O)CSc3nc4nccnc4c(=O)n3CCc3ccccc3)n2)c1` [Example Compound 59, N-(4-(3-Aminophenyl)thiazol-2-yl)-2-((4-oxo-3-phenethyl-3,4-dihydropteridin-2-yl)thio)acetamide] has an IC50 of 0.15 µM. `Cn1c(=O)c2nc(CSc3nc4nccnc4c(=O)n3CCc3ccccc3)[nH]c2n(C)c1=O` [Example Compound 68, 1,3-Dimethyl-8-(((4-oxo-3-phenethyl-3,4-dihydropteridin-2-yl)thio)methyl)-3,9-dihydro-1H-purine-2,6-dione] gave an IC50 of 1.4 µM. Work on `O=C(CSc1nc2ncccc2c(=O)n1CCc1ccccc1)Nc1nccs1` [Example Compound 54, 2-((4-Oxo-3-phenethyl-3,4-dihydropyrido[2,3-d]pyrimidin-2-yl)thio)-N-(thiazol-2-yl)acetamide] yielded an IC50 of 0.82 µM. Work on `COC(=O)c1ccc2[nH]c(CSc3nc4nccnc4c(=O)n3CCc3ccccc3)nc2c1` [Example Compound 75, Methyl 2-(((4-oxo-3-phenethyl-3,4-dihydropteridin-2-yl)thio)methyl)-1H-benzo[d]imidazole-5-carboxylate] yielded an IC50 of 2.6 µM. In the case of `O=c1c2nccnc2nc(SCc2nc3ccccc3[nH]2)n1[C@@H]1C[C@H]1c1ccccc1` (relative stereo) [Example Compound 99, trans-2-(((1H-Benzo[d]imidazol-2-yl)methyl)thio)-3-(2-phenylcyclopropyl)pteridin-4(3H)-one], the IC50 is reported as 1.8 µM. Work on `O=C(CSc1nc2cccnc2c(=O)n1CCc1ccccc1)Nc1nccs1` [Example Compound 13, 2-((4-Oxo-3-phenethyl-3,4-dihydropyrido[3,2-d]pyrimidin-2-yl)thio)-N-(thiazol-2-yl)acetamide] yielded an IC50 of 13 µM. Work on `N#Cc1ccc(-n2c(SCc3nc4ccccc4[nH]3)nc3nccnc3c2=O)cc1` [Example Compound 86, 4-(2-(((1H-Benzo[d]imidazol-2-yl)methyl)thio)-4-oxopteridin-3(4H)-yl)benzonitrile] yielded an IC50 of 1.1 µM. `O=C(CSc1nc2nccnc2c(=O)n1CCc1ccc(O)cc1)Nc1nccs1` [Example Compound 95, 2-((3-(4-Hydroxyphenethyl)-4-oxo-3,4-dihydropteridin-2-yl)thio)-N-(thiazol-2-yl)acetamide] showed an IC50 of 0.21 µM. `O=C(CSc1nc2nccnc2c(=O)n1CCc1ccccc1)Nc1ncc(Cl)s1` [Example Compound 45, N-(5-Chlorothiazol-2-yl)-2-((4-oxo-3-phenethyl-3,4-dihydropteridin-2-yl)thio)acetamide] showed an IC50 of 35 µM. With `Cc1nnc(NS(=O)(=O)c2ccc(-n3c(SCC(=O)Nc4nccs4)nc4nccnc4c3=O)cc2)s1` [Example Compound 80, 2-((3-(4-(N-(5-Methyl-1,3,4-thiadiazol-2-yl)sulfamoyl)phenyl)-4-oxo-3,4-dihydropteridin-2-yl)thio)-N-(thiazol-2-yl)acetamide] the IC50 was 0.28 µM. Work on `O=C(CSc1nc2nccnc2c(=O)n1CCc1cccc(F)c1)NC1CC1` [Example Compound 7, N-Cyclopropyl-2-((3-(3-fluorophenethyl)-4-oxo-3,4-dihydropteridin-2-yl)thio)acetamide] yielded an IC50 of 7.1 µM.
